Where a name gives a salt, the structure may show the parent alone.
What was measured:
Bradycardiac Effect = type: in vivo
[1] = Writhing Test (analgesic effect); type: in vivo
Horse = experiment: Sedation and analgesia in horse, activity vs dosage; type: in vivo
Description: (§1) The following table sets forth the correlation between activity and dosage of 2-[(2-bromo-6-fluorophenyl)-imino]-imidazolidine hydrochloride: […]

Cattle (calf) = experiment: Sedation and analgesia in cattle (calf), activity vs dosage; type: in vivo; conditions: for Effect: analgesia / Effect: sedation / Effect: sleep: cattle (calf)
Description: as §1

Poultry = experiment: Sedation in poultry, activity vs dosage; type: in vivo
Description: as §1

Calf = experiment: Premedication for surgical intervention (hernia umbilicalis) in calf; type: in vivo; conditions: 0.01 mg/kg i.v., operation 20 minutes after injection
Description: as §1

Pig = experiment: Sedation and analgesia in pig, activity vs dosage; type: in vivo
Description: as §1

[2] = Bradycardiac effect (general statement); conditions: in vivo

## Clc1cccc(Cl)c1N=C1NCCN1 [2-[(2,6-Dichlorophenyl)-imino]-imidazolidine.HCl, reference compound]
Bradycardiac Effect
  ED60: 10 µg/kg
[1]
  ED50: 17 µg/kg

## Cl.Fc1cccc(Br)c1N=C1NCCN1 [2-[(2-Bromo-6-fluorophenyl)-imino]-imidazolidine hydrochloride]
Horse; 0.03 mg/kg i.m.
  Effect: analgesia: no
  Effect: sedation: light sedation
Horse; 0.03 mg/kg i.v.
  Effect: analgesia: slight
  Effect: sedation: light sedation
Horse; 0.06 mg/kg i.m.
  Effect: analgesia: rather weaker analgesia
  Effect: sedation: moderate sedation
Horse; 0.06 mg/kg i.v.
  Effect: analgesia: good
  Effect: sedation: strong sedation
Horse; 0.07 mg/kg i.v.
  Effect: analgesia: good
  Effect: sedation: strong sedation
Horse; 0.08 mg/kg i.m.
  Effect: analgesia: good analgesia
  Effect: sedation: strong sedation
Cattle (calf); calf, 0.04 mg/kg p.o.
  Effect: depth of sedation: very good depth of sedation
  Effect: rousability: animal cannot be roused
Cattle (calf); 0.006 mg/kg i.v., i.m.
  Effect: analgesia: no analgesia
  Effect: sedation: low-level sedation
Cattle (calf); 0.008 mg/kg i.m.
  Effect: sedation: good sedation
  Effect: sleep: deep
Cattle (calf); 0.009 mg/kg i.m.
  Effect: sedation: very good sedation
  Effect: sleep: deep sleep
Cattle (calf); 0.009 mg/kg i.m., i.v. result: not total
  Effect: analgesia: as with i.v.
Cattle (calf); 0.009 mg/kg i.v.
  Effect: analgesia: not total
  Effect: sedation: very good sedation
  Effect: sleep: deep sleep
Cattle (calf); 0.01 mg/kg i.m.
  Effect: analgesia: moderate analgesia
  Effect: sedation: very good sedation
Cattle (calf); 0.01 mg/kg i.v.
  Effect: analgesia: moderate analgesia
  Effect: sedation: very good sedation
Poultry; 2.0 mg/kg i.m.
  Effect: sedation: strong sedation
Poultry; 2.0 mg/kg p.o.
  Effect: sedation: good sedation
Poultry; 0.01-0.1 mg/kg i.m.
  Effect: sedation: weak sedation
Poultry; 0.1-0.5 mg/kg i.m.
  Effect: sedation: good sedation
Poultry; 0.5-1.0 mg/kg i.m.
  Effect: sedation: very good sedation
Poultry; 0.5-1.0 mg/kg p.o.
  Effect: sedation: good sedation
Bradycardiac Effect
  ED60: 3 µg/kg
[1]
  ED50: 4 µg/kg
Calf
  Effect: analgesia during and after the operation: good
  Effect: sedation during and after the operation: good
Pig; 0.01-0.03 mg/kg i.m.
  Effect: analgesia: weak
  Effect: sedation: weak sedation
Pig; 0.01-1.0 mg/kg i.m.
  Effect: sedation: strong sedation
Pig; 0.03-0.06 mg/kg i.m.
  Effect: analgesia: rather weaker
  Effect: sedation: good sedation
Pig; 0.06-0.1 mg/kg i.m.
  Effect: analgesia: good
  Effect: sedation: very good sedation

## Fc1cccc(Br)c1N=C1NCCN1 [2-[(2-bromo-6-fluorophenyl)-imino]-imidazolidine]
[2]
  bradycardiac effect: marked bradycardiac effect

— patent US4624960A, “Sedative having analgesic and bradycardiac properties” (Boehringer Ingelheim Vetmedica GmbH, priority 1984, dated 1986)
